Legend:
[1] = system: CYPRO; assay: In-water applied, transplanted paddy rice weeds (Example II); assay type: in vivo, Cyperus rotundus L.
Method: Weed seeds or nutlets of the desired test plant species were planted in puddled soil (mud) prepared by mixing a shredded, non-sterilized mineral soil (50.5 percent silt, 25.5 percent clay, and 24 percent sand, with a pH of about 7.6 and an organic matter content of about 2.9 percent) and water at a 1:1 volumetric ratio. The prepared mud was dispensed in 365 mL aliquots into 16-ounce (oz.) non-perforated plastic pots with a surface area of 86.59 square centimeters (cm^2) leaving a headspace of 3 centimeters (cm) in each pot. Mud was allowed to dry overnight prior to planting or transplanting. Rice seeds were planted in Sun Gro MetroMix® 306 planting mixture, which typically has a pH of about 6.0 to about 6.8 and an organic matter content of about 30 percent, in plastic plug trays. Seedlings at the second or third leaf stage of growth were transplanted into 860 mL of mud contained in 32-oz. non-perforated plastic pots with a surface area of 86.59 cm^2 4 days prior to herbicide application. The paddy was created by filling the headspace of the pots with 2.5 to 3 cm of water. When required to ensure good germination and healthy plants, a fungicide treatment and/or other chemical or physical treatment was applied. The plants were grown for 4-22 days in a greenhouse with an approximate 14 h photoperiod which was maintained at about 29° C. during the day and about 26° C. during the night. Nutrients were added as Osmocote® (19:6:12, N:P:K+minor nutrients) at 2 g per 16-oz. pot and 4 g per 32-oz. pot. […]
Treatment requirements for each compound or herbicidal component were calculated based upon the rates being tested, the concentration of active ingredient or acid equivalent in the formulation, an application volume of 2 mL per component per pot, and an application area of 86.59 cm^2 per pot.
For formulated compounds, a measured amount was placed in an individual 100 or 200 mL glass vial and was dissolved in a volume of 1.25% (v/v) Agri-Dex® crop oil concentrate to obtain application solutions. […]

[2] = system: PAPRH; assay: Postemergence herbicidal activity in cereal crops, greenhouse (Example V); assay type: in vivo, Papaver rhoeas L.
Method: (§1) Seeds of the desired test plant species were planted in Sun Gro MetroMix® 306 planting mixture, which typically has a pH of 6.0 to 6.8 and an organic matter content of about 30 percent, in plastic pots with a surface area of 103.2 square centimeters (cm^2). When required to ensure good germination and healthy plants, a fungicide treatment and/or other chemical or physical treatment was applied. The plants were grown for 7-36 days in a greenhouse with an approximate 14 hour photoperiod which was maintained at about 18° C. during the day and about 17° C. during the night. Nutrients and water were added on a regular basis and supplemental lighting was provided with overhead metal halide 1000-Watt lamps as necessary. The plants were employed for testing when they reached the second or third true leaf stage.
(§2) Treatments consisted of the benzyl ester of 4-amino-3-chloro-5-fluoro-6-(4-chloro-2-fluoro-3-methoxy-phenyl)pyridine-2-carboxylic acid (Compound A), formulated as an SC, a second cereal herbicide alone and then both in combination.
(§3) Other herbicidal components were applied on an acid equivalent basis and include acetolactate synthase (ALS)-inhibiting herbicides (imidazolinone chemical class) imazamethabenz-methyl formulated as Assert®. Spray solutions of the second cereal herbicide and experimental compound mixtures were prepared by adding the stock solutions to the appropriate amount of dilution solution to form 12 mL spray solution with active ingredients in two- and three-way combinations. […]
(§4) The treated plants and control plants were placed in a greenhouse as described above and watered by sub-irrigation to prevent wash-off of the test compounds. After 20-22 days, the condition of the test plants as compared with that of the control plants was determined visually and scored on a scale of 0 to 100 percent where 0 corresponds to no injury and 100 corresponds to complete kill. […]

[3] = system: CHEAL; assay: as above; assay type: in vivo, Chenopodium album L.
Method: as §1, §2, §3, §4

[4] = system: VERPE; assay: as above; assay type: in vivo, Veronica persica Poir.
Method: as §1, §2, §3, §4

[5] = Compound A Benzyl Ester 2 gae/ha
[6] = Compound A Benzyl Ester 4 gae/ha

| Structure (SMILES) | Visual Weed Control (%) - 22 DAA CYPRO Obs ([1]; Compound A Acid 10.6 gae/ha) [%] | Visual Weed Control (%) - 22 DAA CYPRO Obs ([1]; Compound A Acid 21.2 gae/ha) [%] | Visual Weed Control (%) - 21 DAA PAPRH Obs [2, 5] [%] | Visual Weed Control (%) - 21 DAA PAPRH Obs [2, 6] [%] | Visual Weed Control (%) - 21 DAA CHEAL Obs [3, 5] [%] | Visual Weed Control (%) - 21 DAA CHEAL Obs [3, 6] [%] | Visual Weed Control (%) - 21 DAA VERPE Obs [4, 5] [%] | Visual Weed Control (%) - 21 DAA VERPE Obs [4, 6] [%] |
| --- | --- | --- | --- | --- | --- | --- | --- | --- |
| COc1c(Cl)ccc(-c2nc(C(=O)O)c(Cl)c(N)c2F)c1F [Compound A Acid, 4-amino-3-chloro-6-(4-chloro-2-fluoro-3-methoxyphenyl)-5-fluoropyridine-2-carboxylic acid] | 0 | 40 |  |  |  |  |  |  |
| COc1c(Cl)ccc(-c2nc(C(=O)OCc3ccccc3)c(Cl)c(N)c2F)c1F [Compound A Benzyl Ester, benzyl ester of 4-amino-3-chloro-5-fluoro-6-(4-chloro-2-fluoro-3-methoxy-phenyl)pyridine-2-carboxylic acid] |  |  | 20 | 70 | 50 | 60 | 0 | 5 |
